Earlier results, collected in patent publication US20100105761A1, “TREATMENT OF PAIN THROUGH EXPRESSION OF OPIOID RECEPTORS” (priority 2006, published 2010).
Where two headings read alike, the source gives them in different places.

Columns and labels:
TMJ area = settings: rats, dose dependent
masseter muscle [1] = settings: rat
masseter muscle [2] = settings: human
μ receptor [3] = test system: μ receptor
TMJ = settings: placed into the TMJ of cats
μ receptor [4] = settings: in vivo

N[C@@H](CCC(=O)O)C(=O)O [glutamate]
EMG activity after injection into the TMJ area (TMJ area): induced a prolonged increase in EMG activity
masseter muscle activity, female versus male (masseter muscle [1]): evoked higher masseter muscle activity in female than males
masseter muscle activity, female versus male (masseter muscle [2]): evoked higher masseter muscle activity in female than males

CC(=O)Oc1ccc2c3c1O[C@H]1[C@@H](OC(C)=O)C=C[C@H]4[C@@H](C2)N(C)CC[C@@]341 [heroin]
antinociception in mice of the CXBX strain (μ receptor [3]; CXBX strain): potently antinociceptive
antinociception in MOR-1 knockout mice, exon-1 disrupted (μ receptor [3]; MOR-1 knockout, exon-1): still produce antinociception

NCCc1c[nH]cn1 [histamine]
EMG activity in the temporal, digastric and genioglossus muscles (TMJ): increase in electromyographic (EMG) activity

C=CCN1CC[C@]23c4c5ccc(O)c4O[C@H]2/C(=N\N)CC[C@@]3(O)[C@H]1C5 [naloxazone]
effect on binding of radioligands to the μ1-site (μ1-site): abolish the binding of radioligands
blockade of morphine-induced antinociception (μ receptor [4]): selectively blocked
blockade of morphine-induced respiratory depression (μ receptor [4]): did not block
blockade of the induction of morphine dependence (μ receptor [4]): did not block

C=CCN1CC[C@]23c4c5ccc(O)c4O[C@H]2/C(=N/N=C2\CC[C@@]4(O)[C@H]6Cc7ccc(O)c8c7[C@@]4(CCN6CC=C)[C@H]2O8)CC[C@@]3(O)[C@H]1C5 [naloxonazine]
effect on binding of radioligands to the μ1-site (μ1-site): abolish the binding of radioligands

[Cl-].[K+] [potassium chloride]
EMG activity in the temporal, digastric and genioglossus muscles (TMJ): increase in electromyographic (EMG) activity
